Test results published in patent US20130287763A1, “COMBINATION THERAPY FOR TREATING CANCER COMPRISING AN IGF-1R INHIBITOR AND AN AKT INHIBITOR” (MERCK SHARP & DOHME CORP., priority 2010, published 2013).
Entries after “also recorded” stand apart in the source; their conditions may differ.

What was measured:
HT-29 cells [1] = experiment: Phospho-RTK arrays, HT-29 cells; format: cell-based, human
Method: (§1) All CRC and NSCLC cell lines were obtained from ATCC and maintained in 10% fetal bovine serum, FBS (Hyclone) containing media (DMEM or RPMI; Invitrogen Inc) supplemented with pen-strep (Invitrogen) at 37° C. according to the instructions from ATCC.
(§2) About 2 million cells were cultured in 10 cm plates and protein lysates were prepared from a sub-confluent culture. 500 ug of protein lysate were incubated with RTK Arrays (R&D bioscience; cat# ARY001) and developed as detailed in the manual. The arrays were probed with HRP-conjugated P-Tyr antibody and then incubated with Super-Signal chemiluminescence substrate (Pierce) and blots were then exposed to a Kodak Biomax Light Film.

SW-837 cells = experiment: Phospho-RTK arrays, SW-837 cells; format: cell-based, human; conditions: SW-837, 20.95 ug/ml MK-0646, 18 hrs (FIG. 3C)
Method: as §1, §2

[2] = test system: SKCO1 (KRASmut) xenograft tumors; experiment: SKCO1 xenograft growth assessment; format: in vivo, mice; conditions: MK-0646 20 mg/kg i.p. once a week, MK-2206 140 mg/kg p.o. 3-times a week (FIG. 4)
Method: (§3) A suspension of human SKCO1 and SW837 cells (5×10^6) and HT29 (3×10^6) in Matrigel (Cat. #356231, BD Biosciences; 1:1 v/v) were injected subcutaneously into the right flank of 4-6 week old SCID Hairless Outbred (SHO), NOD SCID, or CD-1 nu/nu (Jackson Laboratories) mice, respectively. When tumors reached a size of ˜300 mm3 (Length*Width*Width*0.5), mice were randomized into treatment groups. […] Animals were weighed and tumor volumes were determined by calipering 2 times per week during the study and at termination. Tumor weight was measured and recorded at termination. On day 28 animals were sacrificed by CO2 asphyxiation. […] At time of sacrifice tumors pieces were collected for western blot analysis (snap frozen in liquid nitrogen) and for immunohistochemistry (10% neutral buffered formalin).

[3] = test system: SW837 (KRASG12C) xenograft tumors; experiment: SW837 xenograft growth assessment; format: in vivo, mice; conditions: compared to the vehicle treated group (FIG. 5)
Method: as §3

IGF-1R signaling pathway = experiment: Western blot analysis of IGF-1R/PI3K pathway activity in xenograft tumor samples; format: in vivo, mice; conditions: 24 hrs after MK-0646 or 6 hrs after MK-2206 (FIG. 6)
Method: Total protein lysates from cells (˜0.3 million) cultured in 6 well plates were generated by removing the media, rinsing once with PBS and lysing in NP-40 buffer (1% NP-40, 20 MM Tris-HCL (pH8.0), 137 mM NaCl, 10% glycerol, 2 mM EDTA, Mini Complete protease inhibitor, HALT phosphatase Inhibitor cocktail). Samples were western blotted with indicated total or phosphor-specific antibodies followed by a secondary antibody (Cell Signaling Technology, CST) and then incubated with SuperSignal chemiluminescence substrate (Pierce). The blots were then exposed to a Kodak Biomax Light Film. The antibodies against ERK, p-ERK (Thr202/Tyr204), AKT and p-AKT (Ser473), IGF1R13, S6K & P-S6K (T389), IRS1 & P-IRS1 (S302) and actin were obtained from CST. Total IGF1R antibody was obtained from Santa Cruz and GAPDH was obtained from Chemicon. A suspension of human SKCO1 and SW837 cells (5×10^6) and HT29 (3×10^6) in Matrigel (Cat. #356231, BD Biosciences; 1:1 v/v) were injected subcutaneously into the right flank of 4-6 week old SCID Hairless Outbred (SHO), NOD SCID, or CD-1 nu/nu (Jackson Laboratories) mice, respectively. When tumors reached a size of ˜300 mm3 (Length*Width*Width*0.5), mice were randomized into treatment groups. […] Animals were weighed and tumor volumes were determined by calipering 2 times per week during the study and at termination. Tumor weight was measured and recorded at termination. […]

HT-29 cells [4] = experiment: Western blot of HT-29 cells treated with increasing doses of MK-2206; format: cell-based, human; conditions: MK-2206 0.041-1.11 um, western blot (FIG. 1A)
Method: All CRC and NSCLC cell lines were obtained from ATCC and maintained in 10% fetal bovine serum, FBS (Hyclone) containing media (DMEM or RPMI; Invitrogen Inc) supplemented with pen-strep (Invitrogen) at 37° C. according to the instructions from ATCC. Total protein lysates from cells (˜0.3 million) cultured in 6 well plates were generated by removing the media, rinsing once with PBS and lysing in NP-40 buffer (1% NP-40, 20 MM Tris-HCL (pH8.0), 137 mM NaCl, 10% glycerol, 2 mM EDTA, Mini Complete protease inhibitor, HALT phosphatase Inhibitor cocktail). Samples were western blotted with indicated total or phosphor-specific antibodies followed by a secondary antibody (Cell Signaling Technology, CST) and then incubated with SuperSignal chemiluminescence substrate (Pierce). The blots were then exposed to a Kodak Biomax Light Film. The antibodies against ERK, p-ERK (Thr202/Tyr204), AKT and p-AKT (Ser473), IGF1R13, S6K & P-S6K (T389), IRS1 & P-IRS1 (S302) and actin were obtained from CST. Total IGF1R antibody was obtained from Santa Cruz and GAPDH was obtained from Chemicon.

[5] = test system: SKCO1 (CRC), HCC70 (breast cancer), H1793 (NSCLC) cells; experiment: Phospho-RTK arrays, cell lines from different cancer types; format: cell-based, human; conditions: cell type-dependent
Method: as §2, with “All CRC and NSCLC cell lines were obtained from ATCC and maintained in 10% fetal bovine serum, FBS (Hyclone) containing media (DMEM or RPMI; Invitrogen Inc) supplemented with pen-strep (Invitrogen) at 37° C. according to the instructions from ATCC. About” for “About”

[6] = HT-29 cells, 1 uM MK-2206, 18 hrs, RTK arrays (FIG. 1B)

Compound	amount of active cMET and insulin receptor (HT-29 cells [1]; HT-29, 20.95 ug/ml MK-0646, 18 hrs (FIG. 3A))	amount of active cMET and insulin receptor (SW-837 cells)	tumor growth inhibition compared to vehicle treated control group [2]	tumor growth inhibition [3]	phosphorylation of IGF-1R (HT-29 cells [1]; [6])	phosphorylation of IR and cMET (HT-29 cells [1]; [6])	IGF-1R signaling as measured by phosphorylation of IGF-1R (IGF-1R signaling pathway)	phosphorylation of AKT (HT-29 cells [4])	total IGF-1R levels (HT-29 cells [4])	RTK activity (Her2) ([5]; MK-2206, 18 hrs, RTK arrays (FIG. 2))	phosphorylation of RTKs (IGF-1R, IR, cMET, Her2, Her3, EphA2) ([5]; SKCO1 370 nM, HCC70 370 nM, H1793 1 uM MK-2206, 18 hrs (FIG. 2))
MK-0646: humanized antibody characterized as binding IGF-1R as well as the IR/IGF-1 hybrid receptor	reduced	reduced	significant growth inhibition; also recorded: significantly inhibited tumor growth	~10%	–	–	–	–	–	–	–
NC1(c2ccc(-c3nc4ccn5c(=O)[nH]nc5c4cc3-c3ccccc3)cc2)CCC1 [MK-2206, 8-[4-(1-Aminocyclobutyl)phenyl]-9-phenyl[1,2,4]triazolo[3,4-f]-1,6-naphthyridin-3(2H)-one]	–	–	significant growth inhibition; also recorded: significantly inhibited tumor growth	~30%	increase	observed	feedback activation of IGF-1R signaling	diminished in a dose dependent manner	increase in a dose dependent manner	can decrease	increasing the phosphorylation of multiple RTKs
